Source: US20090298752A1, “APLIDINE TREATMENT OF CANCERS” (PHARMA MAR, S.A., priority 1999, published 2009)
Entries after “also recorded” stand apart in the source; their conditions may differ.

Assays:
human bladder cancer = human bladder cancer animal models; format: in vivo; conditions: complete remissions in some animal models
Text: Bladder tumours are one type of tumour over-expressing the receptor to Epithelial Growth Factor (EGF), which leads to upregulation of VEGF and the VEGF receptor. Binding of VEGF to its receptor is believed to lead to cell growth stimulation by means of transitory local calcium ion changes among other mechanisms for signalling. A compound inhibiting VEGF action is expected to be inhibitory to such tumours.

B-RAF = test: cDNA expression array in MOLT-4 cells; format: cell-based, human; conditions: for quantitative change in B-RAF expression: MOLT-4, 1 h treatment
Description: (§1) The early changes in gene expression induced by aplidine in MOLT-4 cells were evaluated by using cDNA expression arrays (Atlas Human Cancer, Clontech). MOLT-4 cells were treated for 1 hour with concentrations of aplidine which inhibit the growth by 50% and total RNA was isolated at 0, 1, 6 and 24 hours after drug wash out. Filters were hybridised with equal amount of 32P labelled cDNA. Analysis of the results was carried out using ATLAS IMAGE 1.0 software. Changes in gene expression greater than 2 fold were taken as significant changes in RNA expression and subsequently confirmed by PCR.
as §1, with “In the present study we have evaluated the early” for “The early”, “cells” for “cells were evaluated”, “of aplidien” for “of aplidine”, “isolated t” for “isolated at”, “equal amounts” for “equal amount”, “PCR. […] Whether the down-regulation of flt-1 is involved in the cytotoxic and antitumour effect of aplidine is under investigation at the moment.” for “PCR.”
(§2) The human leukaemia cell line MOLT-4 was used for these experiments MOLT-4 cells were treated for 1 hour with 20 nM of aplidine. Total RNA was extracted at the end of treatment and 6 and 24 hours after recovery in drug-free medium.
(§3) 5 μg of total RNA were retrotanscribed to cDNA in the presence of ^32P dATP. Equal amounts of radioactive probes were hybridised to Atlas Human Cancer Microarrays (Clontech). After washing, filter were exposed and the results analysed using the Atlas Image software. Only a gene expression difference greater than 2 fold between treated and untreated cells were taken into account. RT-PCR and northern analysis have been performed to confirm the changes in gene expression found with the microarrays.

DNA-PK = test: cDNA expression array in MOLT-4 cells; format: cell-based, human; conditions: MOLT-4, 1 h treatment
Description: as §1
as §1, with “In the present study we have evaluated the early” for “The early”, “cells” for “cells were evaluated”, “of aplidien” for “of aplidine”, “isolated t” for “isolated at”, “equal amounts” for “equal amount”, “PCR. […] Whether the down-regulation of flt-1 is involved in the cytotoxic and antitumour effect of aplidine is under investigation at the moment.” for “PCR.”
as §2, §3

ETR = test: cDNA expression array in MOLT-4 cells; format: cell-based, human
Description: as §1
as §1, with “In the present study we have evaluated the early” for “The early”, “cells” for “cells were evaluated”, “of aplidien” for “of aplidine”, “isolated t” for “isolated at”, “equal amounts” for “equal amount”, “PCR. […] Whether the down-regulation of flt-1 is involved in the cytotoxic and antitumour effect of aplidine is under investigation at the moment.” for “PCR.”
as §2, §3

FMS = test: cDNA expression array in MOLT-4 cells; format: cell-based, human; conditions: for quantitative change in FMS expression: MOLT-4, 1 h treatment
Description: as §1
as §1, with “In the present study we have evaluated the early” for “The early”, “cells” for “cells were evaluated”, “of aplidien” for “of aplidine”, “isolated t” for “isolated at”, “equal amounts” for “equal amount”, “PCR. […] Whether the down-regulation of flt-1 is involved in the cytotoxic and antitumour effect of aplidine is under investigation at the moment.” for “PCR.”
as §2, §3

PLK-1 = test: cDNA expression array in MOLT-4 cells; format: cell-based, human; conditions: MOLT-4, 1 h treatment
Description: as §1
as §1, with “In the present study we have evaluated the early” for “The early”, “cells” for “cells were evaluated”, “of aplidien” for “of aplidine”, “isolated t” for “isolated at”, “equal amounts” for “equal amount”, “PCR. […] Whether the down-regulation of flt-1 is involved in the cytotoxic and antitumour effect of aplidine is under investigation at the moment.” for “PCR.”
as §2, §3

VEGF = VEGF secretion from MOLT-4 cells (ELISA); format: cell-based, human
Description: Cells were treated for 1 h with 20 nM aplidine. VEGF secreted in the medium was measured by ELISA at the end of treatment and after 6 and 24 hours incubation in drug-free medium.

MOLT-4 cells = test: activity of aplidine on MOLT-4 cells with VEGF added; format: cell-based, human; conditions: VEGF 10 ng/ml, 10% FCS, low concentrations of aplidine
[1] = system: brain cells (neurons and astrocytes); test: fluorescent viability stain with immunocytochemistry; format: cell-based; conditions: ethidium homodimer and calcein AM
Text: (§4) The motor neuron sensitivity may help to explain the type II muscle atrophy observed (as predicted) in a small group of patients where the AUC concentration of the drug is elevated due to diminished excretion.

[2] = system: motor (choline acetyl transferatse positive) neurons in the spinal cord; test: as above; format: cell-based; conditions: ethidium homodimer and calcein AM
Text: as §4

[3] = system: substance P positive sensory neurones; test: as above; format: cell-based; conditions: ethidium homodimer and calcein AM
Text: as §4

[4] = Phase I, 1 h weekly infusion x3 q4wk: toxicity and pharmacokinetics; format: in vivo, human; parameters: CL: unit not given here
Text: Adult patients with advanced disease, PS<3, and appropriate organ function are considered eligible; patients receive aplidine wk×3/q^4 wks. 24 solid tumour patients have been entered: median (m) age 55 y, m ECOG=1, 15/24 patients treated with =>2 treatment cycles. Seven dose levels (DL) from 133 mcg/m^2/wk to 2700 mcg/m^2/wk have been assessed: 102 infusions are evaluable for toxicity (tox). […] At 2700 mcg/m^2/wk (4 pts), 1 had G3 hiperbilirrubinemia that has been considered to be dose limiting and therefore 2700 mcg/m^2/wk DL is being expanded. […] Plasma levels >1 ng/ml 24 hours after infusion are reachable form 1800 mcg/m^2/wk. […] Aplidine appears to be clinically feasible at pharmacologically appropriate dose levels.
Aplidine was administered as a 1 hour weekly×3 every four weeks

[5] = MOLT-4, 6 hours after recovery in drug-free medium
[6] = 3-compartment model, preliminary

aplidine
activity on human bladder cancer (human bladder cancer): exceedingly high activity | quantitative change in B-RAF expression (B-RAF; 6 Hours): +2.0 fold | quantitative change in B-RAF expression (B-RAF; 24 Hours): +2.6 fold | levels of B-RAF, in words (B-RAF; [5]): increase | quantitative change in DNA-PK expression (DNA-PK; 6 Hours): +3.0 fold | quantitative change in DNA-PK expression (DNA-PK; 24 Hours): +3.8 fold | ETR levels, in words (ETR; MOLT-4, 20 nM 1 h, after 6 and 24 hours): returned to normal level | expression of early response gene ETR, in words (ETR; MOLT-4, 20 nM 1 h, at the end of treatment): increased | quantitative change in ETR expression (ETR; MOLT-4, 1 h treatment, 1 Hour): +2.7 fold | quantitative change in FMS expression (FMS; 6 Hours): +2.7 fold | quantitative change in FMS expression (FMS; 24 Hours): +2.1 fold | levels of Fms, in words (FMS; [5]): increase | quantitative change in PLK-1 expression (PLK-1; 6 Hours): +3.0 fold | quantitative change in PLK-1 expression (PLK-1; 24 Hours): +4.4 fold | intracellular VEGF (VEGF): increased intracellular accumulation of VEGF | VEGF secretion, in words (VEGF; 1 h with 20 nM aplidine): strong reduction of VEGF secretion; also recorded: severely inhibit production; also recorded: Blocks VEGF Secretion | concentration at which block of VEGF secretion is already observable (VEGF; concentration-dependent): 5 nm | effect of added VEGF on activity of aplidine (MOLT-4 cells): slightly reduced the activity of low concentrations of aplidine; also recorded: partially abolish the activity of aplidine | toxic concentration [1]: approximately 1 μM | toxic concentration [2]: approximately 1 μM | toxicity at approximately 1 μM [3]: but not substance P positive sensory neurones | initial phase median half-life [4, 6]: 2.4 min | intermediate phase median half-life [4, 6]: 1.4 h | terminal phase median half-life [4, 6]: 20.7 h | Hypertension G3 (worst toxicity per patient) ([4]; 133 mcg/m^2/wk x3, 3 patients): (1) | Transaminitis G2 (worst toxicity per patient) ([4]; 133 mcg/m^2/wk x3, 3 patients): 1 | Alk. Phos. G3 (worst toxicity per patient) ([4]; 266 mcg/m^2/wk x3, 3 patients): (1) | Injection site reaction G2 (worst toxicity per patient) ([4]; 266 mcg/m^2/wk x3, 3 patients): 1 | Asthenia G2 (worst toxicity per patient) ([4]; 532 mcg/m^2/wk x3, 3 patients): 1 | Transaminitis G3 (worst toxicity per patient) ([4]; 532 mcg/m^2/wk x3, 3 patients): (1) | Asthenia G2 (worst toxicity per patient) ([4]; 800 mcg/m^2/wk x3, 3 patients): 1(1) | Asthenia G3 (worst toxicity per patient) ([4]; 800 mcg/m^2/wk x3, 3 patients): 1(1) | CPK elevation G1 (worst toxicity per patient) ([4]; 800 mcg/m^2/wk x3, 3 patients): 1 | Hypertension G1 (worst toxicity per patient) ([4]; 800 mcg/m^2/wk x3, 3 patients): 1 | Injection site reaction G2 (worst toxicity per patient) ([4]; 800 mcg/m^2/wk x3, 3 patients): 1 | Nausea/vomiting G2 (worst toxicity per patient) ([4]; 800 mcg/m^2/wk x3, 3 patients): 3 | Transaminitis G2 (worst toxicity per patient) ([4]; 800 mcg/m^2/wk x3, 3 patients): 1 | Asthenia G2 (worst toxicity per patient) ([4]; 1200 mcg/m^2/wk x3, 4 patients): 3 | Injection site reaction G2 (worst toxicity per patient) ([4]; 1200 mcg/m^2/wk x3, 4 patients): 1 | Myalgia G3 (worst toxicity per patient) ([4]; 1200 mcg/m^2/wk x3, 4 patients): (1) | Alk. Phos. G2 (worst toxicity per patient) ([4]; 1800 mcg/m^2/wk x3, 4 patients): 1 | Asthenia G2 (worst toxicity per patient) ([4]; 1800 mcg/m^2/wk x3, 4 patients): 2 | Injection site reaction G2 (worst toxicity per patient) ([4]; 1800 mcg/m^2/wk x3, 4 patients): 1 | Nausea/vomiting G2 (worst toxicity per patient) ([4]; 1800 mcg/m^2/wk x3, 4 patients): 3 | Transaminitis G2 (worst toxicity per patient) ([4]; 1800 mcg/m^2/wk x3, 4 patients): 1 | G3 hiperbilirrubinemia (dose limiting) ([4]; 2700 mcg/m^2/wk (4 pts)): 1 | Asthenia G2 (worst toxicity per patient) ([4]; 2700 mcg/m^2/wk x3, 8 patients): 1(1) | Asthenia G3 (worst toxicity per patient) ([4]; 2700 mcg/m^2/wk x3, 8 patients): 1(1) | Injection site reaction G2 (worst toxicity per patient) ([4]; 2700 mcg/m^2/wk x3, 8 patients): 3 | Nausea/vomiting G2 (worst toxicity per patient) ([4]; 2700 mcg/m^2/wk x3, 8 patients): 2 | Transaminitis G2 (worst toxicity per patient) ([4]; 2700 mcg/m^2/wk x3, 8 patients): 1 | Bilirrubin G3 (worst toxicity per patient) ([4]; 2700 mcg/m^2/wk x3, 8 patients, footnote DLT): 1(1)^(2) | CPK elevation G1 (worst toxicity per patient) ([4]; 3600 mcg/m^2/wk x3, 2 patients): 1 | clinically feasible dose ([4]; 1 hour infusion weekly with one week rest): ≤ 3600 mcg/m^2 every week | haematological tox ([4]; Example 13, 102 infusions): No haematological tox | CL ([4]; Example 13, median): 0.60 | m Vss ([4]; Example 13, median): 308 L/m^2 | m elimination half life ([4]; Example 13, median): 14.2 h | Bone marrow toxicity ([4]; Example 17): has not been reported | coefficient of variation of CL ([4]; Example 17, interpatient): 33% | Vss ([4]; Example 17, median (quartiles)): 345 (220-398) L/m^2 | t ½ ([4]; Example 17, median (quartiles)): 15.8 (13.3-19.5) h | plasma CL ([4]; Example 17, median, quartiles 288-407): 329 mL/min/m^2 | dose from which potentially therapeutic plasma levels are achievable ([4]; in vivo): ≥ 1200 μg/m^2 | Plasma levels 24 hours after infusion ([4]; reachable from 1800 mcg/m^2/wk): > 1 ng/mL
